Growth data for two compounds are collected here from ChEMBL document CHEMBL4020759, “Sulfoximines as ATR inhibitors: Analogs of VE-821” (2017).

What all share (format): functional
One experiment has as its system HCT-15. Nature of the experiment: Growth inhibition of human HCT15 cells assessed as cell growth at 10 uM incubated for 48 hrs by sulforhodamine B assay. Particulars: HCT-15, 48 h, read-out: Activity.
For the next experiment, the system named is OVCAR-8. The experiment is described as follows: Growth inhibition of human OVCAR8 cells assessed as cell growth at 10 uM incubated for 48 hrs by sulforhodamine B assay. Particulars: OVCAR-8, 48 h, read-out: Activity. Background: In SRB staining, fixed cells bind dye roughly in proportion to their protein.
In a further experiment the test system is A498. The experiment is described as follows: Growth inhibition of human A498 cells assessed as cell growth at 10 uM incubated for 48 hrs by sulforhodamine B assay. The settings on record: A498, 48 h, read-out: Activity.
The subject of another experiment is BT-549. The experiment is described as follows: Growth inhibition of human BT549 cells assessed as cell growth at 10 uM incubated for 48 hrs by sulforhodamine B assay. The settings on record: BT-549, 48 h, read-out: Activity.

Each structure is given as a SMILES string.

Regarding `CS(=O)(=NC#N)c1ccc(-c2cnc(N)c(C(=O)Nc3ccccc3)n2)cc1` (stereo not drawn), the growth at 10 µM in the experiment with HCT-15 came to 63.2%; in the experiment with OVCAR-8 it was 96.8%; with A498, 76.1%; in the experiment on BT-549 it was 73.4%.
In the same order, the values of `C/S(=N\C#N)c1ccc(-c2cnc(N)c(C(=O)Nc3ccccc3)n2)cc1` (stereo not drawn) are 64.2%, 102%, 86.3% and 83.5%.
